Reference: patent US4740601A, “Imidazole derivatives having antimicrobial activities” (SS Pharmaceutical Co., Ltd., priority 1985, dated 1988)
Values after ≈ are worked out from the molar mass of the structure shown.

Test system: Staphylococcus epidermidis ATCC 12228
Experiment: antimicrobial activity, MIC
Assay type: cell-based
Conditions: Staphylococcus epidermidis, ATCC12228, Staphylococcus epidermidis ATCC 12228; read-out: MIC

Structure (SMILES) | MIC
CCCOc1ccccc1C(=CSc1ccccc1)n1ccnc1 (single isomer, unassigned) [Compound 64] | 6.25 µg/mL (≈ 18.6 µM)

Test system: Trichophyton mentagrophytes IFO 5812
Experiment: antimicrobial activity, MIC
Assay type: cell-based
Conditions: Trichophyton mentagrophytes IFO 5812

Structure (SMILES) | MIC
CCCOc1ccccc1C(=CSc1ccccc1)n1ccnc1 (single isomer, unassigned) [Compound 64] | < 0.2 µg/mL

Test system: Cladosporium fulvum IAM 5006
Experiment: antimicrobial activity, MIC
Assay type: cell-based
Conditions: Fulvia fulva, IAM5006, Cladosporium fulvum IAM 5006; read-out: MIC

Structure (SMILES) | MIC
CCCOc1ccccc1C(=CSc1ccccc1)n1ccnc1 (single isomer, unassigned) [Compound 64] | > 100 µg/mL

Test system: Candida albicans NHL 4019
Experiment: antimicrobial activity, MIC
Assay type: cell-based
Conditions: Candida albicans, NHL4019, Candida albicans NHL 4019; read-out: MIC

Structure (SMILES) | MIC
CCCOc1ccccc1C(=CSc1ccccc1)n1ccnc1 (single isomer, unassigned) [Compound 64] | > 100 µg/mL

Test system: Pyricularia oryzae IAM 5016
Experiment: microbe, parasite or virus in culture
Assay type: cell-based
Conditions: Pyricularia oryzae IAM 5016

Structure (SMILES) | MIC
CCCOc1ccccc1C(=CSc1ccccc1)n1ccnc1 (single isomer, unassigned) [Compound 64] | < 0.2 µg/mL

Test system: Staphylococcus aureus Terajima
Experiment: antimicrobial activity, MIC
Assay type: cell-based
Conditions: Staphylococcus aureus, read-out: MIC

Structure (SMILES) | MIC
CCCOc1ccccc1C(=CSc1ccccc1)n1ccnc1 (single isomer, unassigned) [Compound 64] | 6.25 µg/mL (≈ 18.6 µM)

Test system: Helminthosporium sesamum IAM 5012
Experiment: antimicrobial activity, MIC
Assay type: cell-based
Conditions: Helminthosporium sesamum IAM 5012

Structure (SMILES) | MIC
CCCOc1ccccc1C(=CSc1ccccc1)n1ccnc1 (single isomer, unassigned) [Compound 64] | 6.25 µg/mL (≈ 18.6 µM)

Test system: Aspergillus niger ATCC 9642
Experiment: antimicrobial activity, MIC
Assay type: cell-based
Conditions: Aspergillus niger ATCC 9642

Structure (SMILES) | MIC
CCCOc1ccccc1C(=CSc1ccccc1)n1ccnc1 (single isomer, unassigned) [Compound 64] | 12.5 µg/mL (≈ 37.2 µM)

Test system: Penicillium chrysogenum ATCC 6010
Experiment: antimicrobial activity, MIC
Assay type: cell-based
Conditions: Penicillium chrysogenum ATCC 6010

Structure (SMILES) | MIC
CCCOc1ccccc1C(=CSc1ccccc1)n1ccnc1 (single isomer, unassigned) [Compound 64] | 12.5 µg/mL (≈ 37.2 µM)

Test system: Debaryomyces kloeckeri IFO 0015
Experiment: antimicrobial activity, MIC
Assay type: cell-based
Conditions: IFO0015, read-out: MIC

Structure (SMILES) | MIC
CCCOc1ccccc1C(=CSc1ccccc1)n1ccnc1 (single isomer, unassigned) [Compound 64] | > 100 µg/mL

Test system: Trichophyton rubrum NHL J
Experiment: antimicrobial activity, MIC
Assay type: cell-based
Conditions: Trichophyton rubrum NHL J

Structure (SMILES) | MIC
CCCOc1ccccc1C(=CSc1ccccc1)n1ccnc1 (single isomer, unassigned) [Compound 64] | < 0.2 µg/mL

Test system: Staphylococcus aureus FDA 209P
Experiment: antimicrobial activity, MIC
Assay type: cell-based
Conditions: Staphylococcus aureus, FDA209P, read-out: MIC

Structure (SMILES) | MIC
CCCOc1ccccc1C(=CSc1ccccc1)n1ccnc1 (single isomer, unassigned) [Compound 64] | 25 µg/mL (≈ 74.3 µM)

Test system: Saccharomyces ruxii 6507
Experiment: antimicrobial activity, MIC
Assay type: cell-based
Conditions: Saccharomyces, 6507, Saccharomyces ruxii 6507

Structure (SMILES) | MIC
CCCOc1ccccc1C(=CSc1ccccc1)n1ccnc1 (single isomer, unassigned) [Compound 64] | 1.56 µg/mL (≈ 4.64 µM)

Test system: Staphylococcus aureus Smith
Experiment: antimicrobial activity, MIC
Assay type: cell-based
Conditions: Staphylococcus aureus, read-out: MIC

Structure (SMILES) | MIC
CCCOc1ccccc1C(=CSc1ccccc1)n1ccnc1 (single isomer, unassigned) [Compound 64] | 12.5 µg/mL (≈ 37.2 µM)

Test system: Microsporum audounii IFO 6074
Experiment: antimicrobial activity, MIC
Assay type: cell-based
Conditions: Microsporum audounii IFO 6074

Structure (SMILES) | MIC
CCCOc1ccccc1C(=CSc1ccccc1)n1ccnc1 (single isomer, unassigned) [Compound 64] | < 0.2 µg/mL

Test system: Trichophyton tonsurans IFO 5928
Experiment: antimicrobial activity, MIC
Assay type: cell-based
Conditions: Trichophyton tonsurans IFO 5928

Structure (SMILES) | MIC
CCCOc1ccccc1C(=CSc1ccccc1)n1ccnc1 (single isomer, unassigned) [Compound 64] | 3.12 µg/mL (≈ 9.27 µM)

Test system: Candida albicans Yu-1200
Experiment: antimicrobial activity, MIC
Assay type: cell-based
Conditions: YU1200, read-out: MIC

Structure (SMILES) | MIC
CCCOc1ccccc1C(=CSc1ccccc1)n1ccnc1 (single isomer, unassigned) [Compound 64] | > 100 µg/mL

Test system: Gibberella fujikuroi IAM 8046
Experiment: antimicrobial activity, MIC
Assay type: cell-based
Conditions: Gibberella fujikuroi IAM 8046

Structure (SMILES) | MIC
CCCOc1ccccc1C(=CSc1ccccc1)n1ccnc1 (single isomer, unassigned) [Compound 64] | 25 µg/mL (≈ 74.3 µM)

Test system: Sarcina lutea ATCC 9341
Experiment: antimicrobial activity, MIC
Assay type: cell-based
Conditions: Sarcina lutea ATCC 9341

Structure (SMILES) | MIC
CCCOc1ccccc1C(=CSc1ccccc1)n1ccnc1 (single isomer, unassigned) [Compound 64] | 6.25 µg/mL (≈ 18.6 µM)

Test system: Aspergillus oryzae IMF 4014
Experiment: antimicrobial activity, MIC
Assay type: cell-based
Conditions: Aspergillus oryzae IMF 4014

Structure (SMILES) | MIC
CCCOc1ccccc1C(=CSc1ccccc1)n1ccnc1 (single isomer, unassigned) [Compound 64] | 6.25 µg/mL (≈ 18.6 µM)

Test system: Epidermophyton floccosum IFO 9045
Experiment: antimicrobial activity, MIC
Assay type: cell-based
Conditions: Epidermophyton floccosum IFO 9045

Structure (SMILES) | MIC
CCCOc1ccccc1C(=CSc1ccccc1)n1ccnc1 (single isomer, unassigned) [Compound 64] | 6.25 µg/mL (≈ 18.6 µM)

Test system: Fusarium moniliforme IAM 5062
Experiment: antimicrobial activity, MIC
Assay type: cell-based
Conditions: Fusarium verticillioides, IAM5062, Fusarium moniliforme IAM 5062; read-out: MIC

Structure (SMILES) | MIC
CCCOc1ccccc1C(=CSc1ccccc1)n1ccnc1 (single isomer, unassigned) [Compound 64] | 50 µg/mL (≈ 149 µM)

Test system: Bacillus subtilis ATCC 6633
Experiment: antimicrobial activity, MIC
Assay type: cell-based
Conditions: Bacillus subtilis ATCC 6633

Structure (SMILES) | MIC
CCCOc1ccccc1C(=CSc1ccccc1)n1ccnc1 (single isomer, unassigned) [Compound 64] | 6.25 µg/mL (≈ 18.6 µM)

Test system: Saccharomyces cerevisiae ATCC 9763
Experiment: antimicrobial activity, MIC
Assay type: cell-based
Conditions: Saccharomyces cerevisiae, ATCC9763, Saccharomyces cerevisiae ATCC 9763; read-out: MIC

Structure (SMILES) | MIC
CCCOc1ccccc1C(=CSc1ccccc1)n1ccnc1 (single isomer, unassigned) [Compound 64] | 50 µg/mL (≈ 149 µM)

Test system: Microsporum gypseum IFO 8231
Experiment: antimicrobial activity, MIC
Assay type: cell-based
Conditions: Nannizzia gypsea, IFO8231, Microsporum gypseum IFO 8231; read-out: MIC

Structure (SMILES) | MIC
CCCOc1ccccc1C(=CSc1ccccc1)n1ccnc1 (single isomer, unassigned) [Compound 64] | 6.25 µg/mL (≈ 18.6 µM)

Test system: Streptococcus faecalis IFO 12964
Experiment: antimicrobial activity, MIC
Assay type: cell-based
Conditions: Enterococcus faecalis, IFO12964, Streptococcus faecalis IFO 12964; read-out: MIC

Structure (SMILES) | MIC
CCCOc1ccccc1C(=CSc1ccccc1)n1ccnc1 (single isomer, unassigned) [Compound 64] | 25 µg/mL (≈ 74.3 µM)

Test system: Micrococcus lysodeixticus IFO 3333
Experiment: antimicrobial activity, MIC
Assay type: cell-based
Conditions: Micrococcus, IFO3333

Structure (SMILES) | MIC
CCCOc1ccccc1C(=CSc1ccccc1)n1ccnc1 (single isomer, unassigned) [Compound 64] | 1.56 µg/mL (≈ 4.64 µM)

Test system: Trichophyton mentagrophytes QM 248
Experiment: antimicrobial activity, MIC
Assay type: cell-based
Conditions: Trichophyton mentagrophytes QM 248

Structure (SMILES) | MIC
CCCOc1ccccc1C(=CSc1ccccc1)n1ccnc1 (single isomer, unassigned) [Compound 64] | 0.78 µg/mL (≈ 2.32 µM)

Test system: Microsporum cookei IFO 8303
Experiment: antimicrobial activity, MIC
Assay type: cell-based
Conditions: Microsporum cookei IFO 8303

Structure (SMILES) | MIC
CCCOc1ccccc1C(=CSc1ccccc1)n1ccnc1 (single isomer, unassigned) [Compound 64] | 12.5 µg/mL (≈ 37.2 µM)
